Data: US12453712B2, “Antitumoral use of cabazitaxel” (Sanofi Mature IP, priority 2009, dated 2025)
Where two headings read alike, the source gives them in different places.

Assays:
[1] = Population pharmacokinetic analysis in patients; assay type: in vivo, human; conditions: for Cmax: CV 107%; for half-life: 1-hour intravenous infusion, 3-compartment PK model
Protocol: A population pharmacokinetic analysis was conducted in 170 patients with solid tumors at doses ranging from 10 to 30 mg/m^2 weekly or every 3 weeks.

CYP3A = assay: Metabolism of cabazitaxel
Excerpt: Concomitant administration of strong CYP3A inhibitors (for example, ketoconazole, itraconazole, clarithromycin, atazanavir, indinavir, nefazodone, nelfinavir, ritonavir, saquinavir, telithromycin, voriconazole) may increase cabazitaxel concentrations. Therefore co-administration of cabazitaxel with strong CYP3A inhibitors should be avoided. Caution should be exercised with concomitant use of moderate CYP3A inhibitors. One aspect of the invention is a method of treating a patient for prostate cancer comprising determining whether the patient is undergoing treatment with a CYP3A inhibitor, discontinuing treatment with a CYP3A inhibitor, and then administering cabazitaxel to the patient.

breast cancer = conditions: phase II, cited from earlier work
[2] = Same clinical study: adverse reactions, hematologic abnormalities, treatment discontinuation, delays and dose reductions; assay type: in vivo, human
Protocol: A clinical study was performed wherein patients received either treatment with cabazitaxel or the reference treatment based on mitoxantrone each combined with prednisone or prednisolone.
More specifically, patients over 18 years of age with metastatic castration resistant metastatic prostate cancer either measurable by RECIST criteria or non-measurable disease with rising PSA levels or appearance of new lesions, ECOG (Eastern Cooperative Oncology Group) performance stage 0-2, and adequate organ function (patients had to have neutrophils >1,500 cells/mm^3, platelets >100,000 cells/mm^3, hemoglobin >10 g/dL, creatinine <1.5×upper limit of normal (ULN), total bilirubin <1×ULN, AST <1.5×ULN, and ALT <1.5×ULN) who had had prior hormone therapy, chemotherapy, and radiotherapy, but had progressive during or after docetaxel treatment (cumulative dose ≥225 mg/m^2) were randomized to 10 mg/day of prednisone with either mitoxantrone 12 mg/m^2 or cabazitaxel 25 mg/m^2, both administered every 3 weeks.
Patients with a history of congestive heart failure, or myocardial infarction within the last 6 months, or patients with uncontrolled cardiac arrhythmias, angina pectoris, and/or hypertension were not included in the study.
720 patients were planned to be included in the clinical study: 360 in each cabazitaxel+prednisone and mitoxantrone+prednisone group. Seven hundred and fifty-five patients (755) (median age 68; 84% white) were actually enrolled, 378 in the cabazitaxel and prednisone/prednisolone group and 377 in the mitoxantrone and prednisone/prednisolone group. The maximal number of treatment cycles was 10 for cabazitaxel and 10 for mitoxantrone. The median number of treatment cycles was 6 for cabazitaxel and 4 for mitoxantrone. The median prior dose of docetaxel treatment was 576 mg/m^2 for the cabazitaxel group and 529 mg/m^2 for the mitoxantrone group. Median follow-up was 12.8 months.

[3] = human, in vivo, listed as Cabazitaxel
[4] = percent of patients, laboratory values, cabazitaxel: n = 369, mitoxantrone: n = 370

SMILES: CO[C@H]1C(=O)[C@]2(C)[C@@H](OC)C[C@H]3OC[C@@]3(OC(C)=O)[C@H]2[C@H](OC(=O)c2ccccc2)[C@]2(O)C[C@H](OC(=O)[C@H](O)[C@@H](NC(=O)OC(C)(C)C)c3ccccc3)C(C)=C1C2(C)C [cabazitaxel, 4α-acetoxy-2α-benzoyloxy-5β,20-epoxy-1β-hydroxy-7β,10β-dimethoxy-9-oxo-11-taxen-13α-yl (2R,3S)-3-tert-butoxycarbonyl-amino-2-hydroxy-3-phenylpropionate]
- dose proportionality ([1]; 10 to 30 mg/m^2, patients with advanced solid tumors): No major deviation from the dose proportionality
- volume of distribution (Vss) ([1]; at steady state, for a patient with a median BSA of 1.84 m^2): 2,643 L/m^2
- plasma clearance ([1]; for a patient with a median BSA of 1.84 m^2): 26.4 L/h/m^2
- Tmax ([1]; human, plasma, intravenous, 25 mg/m^2, Cmax reached at the end of the 1-hour infusion): 1 h
- Cmax ([1]; human, plasma, intravenous, 25 mg/m^2, amount administered to provide this Cmax, read-out: Cmax): ~226 ng/mL
- Vd ([1]; human, plasma, intravenous, at steady state, read-out: volume of distribution (Vss)): 4860 L
- half-life ([1]; human, plasma, iv, read-out: α-half-life): 0.0667 h
- half-life ([1]; human, plasma, iv, read-out: β-half-life (converted)): 2 h
- half-life ([1]; human, plasma, iv, read-out: γ-half-life (converted)): 95 h
- Cmax ([1]; male, human, plasma, 25 mg/m2, intravenous 25 mg/m^2 every 3 weeks, patients with metastatic prostate cancer, read-out: mean Cmax): 226 ng/mL
- clearance ([1]; male, human, plasma, intravenous, patients with metastatic prostate cancer, CV 39%): 808 mL/min
- AUC ([1]; male, human, plasma, iv, 25 mg/m2, intravenous 25 mg/m^2 every 3 weeks, patients with metastatic prostate cancer, CV 34%): 991 ng·h/mL
- effect of prednisone or prednisolone on the pharmacokinetics of cabazitaxel ([1]; prednisone or prednisolone 10 mg daily): does not affect
- metabolic pathway (CYP3A): primarily metabolized through CYP3A
- response level (breast cancer; prior taxanes and anthracyclines as adjuvant): 14.6%
- response level (breast cancer; second-line treatment): 9.5%
- Rates of febrile neutropenia ([2]; Example 1): 7.5%
- Dose reductions, cycles (%) ([2]; human, in vivo): 9.8%
- Dose reductions, no. of cycles ([2]; human, in vivo): 221
- Treatment delays >9 days, cycles (%) ([2]; human, in vivo): 2.3%
- Treatment delays >9 days, no. of cycles ([2]; human, in vivo): 51
- Treatment delays ≤9 days, cycles (%) ([2]; human, in vivo): 7%
- Treatment delays ≤9 days, no. of cycles ([2]; human, in vivo): 157
- Dose reductions, cycles (%) [2, 3]: (9.8) %
- Treatment delays >9 days, cycles (%) [2, 3]: (2.3) %
- Treatment delays ≤9 days, cycles (%) [2, 3]: (7.0) %
- Discontinuation of study treatment for adverse event, (%) ([2]; intention-to-treat): (17.7) %
- Discontinuation of study treatment for adverse event, no. ([2]; intention-to-treat, N = 377 mitoxantrone, N = 378 cabazitaxel): 67
- most common (≥5%) grade 3-4 adverse reactions ([2]; patients who received cabazitaxel): neutropenia, leukopenia, anemia, febrile neutropenia, diarrhea, fatigue, and asthenia
- Abdominal Pain Grade 1-4, (%) ([2]; percent of patients of n = 371): (17%)
- Abdominal Pain Grade 3-4, (%) ([2]; percent of patients of n = 371): (2%)
- Alopecia Grade 1-4, (%) ([2]; percent of patients of n = 371): (10%)
- Anorexia Grade 1-4, (%) ([2]; percent of patients of n = 371): (16%)
- Anorexia Grade 3-4, (%) ([2]; percent of patients of n = 371): (<1%)
- Arrhythmia Grade 1-4, (%) ([2]; percent of patients of n = 371): (5%)
- Arrhythmia Grade 3-4, (%) ([2]; percent of patients of n = 371): (1%)
- Arthralgia Grade 1-4, (%) ([2]; percent of patients of n = 371): (11%)
- Arthralgia Grade 3-4, (%) ([2]; percent of patients of n = 371): (1%)
- Asthenia Grade 1-4, (%) ([2]; percent of patients of n = 371): (20%)
- Asthenia Grade 3-4, (%) ([2]; percent of patients of n = 371): (5%)
- Back Pain Grade 1-4, (%) ([2]; percent of patients of n = 371): (16%)
- Back Pain Grade 3-4, (%) ([2]; percent of patients of n = 371): (4%)
- Bone Pain Grade 1-4, (%) ([2]; percent of patients of n = 371): (5%)
- Bone Pain Grade 3-4, (%) ([2]; percent of patients of n = 371): (<1%)
- Constipation Grade 1-4, (%) ([2]; percent of patients of n = 371): (20%)
- Constipation Grade 3-4, (%) ([2]; percent of patients of n = 371): (1%)
- Cough Grade 1-4, (%) ([2]; percent of patients of n = 371): (11%)
- Dehydration Grade 1-4, (%) ([2]; percent of patients of n = 371): (5%)
- Dehydration Grade 3-4, (%) ([2]; percent of patients of n = 371): (2%)
- Diarrhea Grade 1-4, (%) ([2]; percent of patients of n = 371): (47%)
- Diarrhea Grade 3-4, (%) ([2]; percent of patients of n = 371): (6%)
- Dizziness Grade 1-4, (%) ([2]; percent of patients of n = 371): (8%)
- Dysgeusia Grade 1-4, (%) ([2]; percent of patients of n = 371): (11%)
- Dyspepsia Grade 1-4, (%) ([2]; percent of patients of n = 371): (10%)
- Dyspnea Grade 1-4, (%) ([2]; percent of patients of n = 371): (12%)
- Dyspnea Grade 3-4, (%) ([2]; percent of patients of n = 371): (1%)
- Dysuria Grade 1-4, (%) ([2]; percent of patients of n = 371): (7%)
- Fatigue Grade 1-4, (%) ([2]; percent of patients of n = 371): (37%)
- Fatigue Grade 3-4, (%) ([2]; percent of patients of n = 371): (5%)
- Febrile Neutropenia Grade 1-4, (%) ([2]; percent of patients of n = 371): (7%)
- Febrile Neutropenia Grade 3-4, (%) ([2]; percent of patients of n = 371): (7%)
- Headache Grade 1-4, (%) ([2]; percent of patients of n = 371): (8%)
- Hematuria Grade 1-4, (%) ([2]; percent of patients of n = 371): (17%)
- Hematuria Grade 3-4, (%) ([2]; percent of patients of n = 371): (2%)
- Hypotension Grade 1-4, (%) ([2]; percent of patients of n = 371): (5%)
- Hypotension Grade 3-4, (%) ([2]; percent of patients of n = 371): (<1%)
- Mucosal Inflammation Grade 1-4, (%) ([2]; percent of patients of n = 371): (6%)
- Mucosal Inflammation Grade 3-4, (%) ([2]; percent of patients of n = 371): (<1%)
- Muscle Spasms Grade 1-4, (%) ([2]; percent of patients of n = 371): (7%)
- Musculoskeletal Pain Grade 1-4, (%) ([2]; percent of patients of n = 371): (5%)
- Musculoskeletal Pain Grade 3-4, (%) ([2]; percent of patients of n = 371): (<1%)
- Nausea Grade 1-4, (%) ([2]; percent of patients of n = 371): (34%)
- Nausea Grade 3-4, (%) ([2]; percent of patients of n = 371): (2%)
- Pain Grade 1-4, (%) ([2]; percent of patients of n = 371): (5%)
- Pain Grade 3-4, (%) ([2]; percent of patients of n = 371): (1%)
- Pain in Extremity Grade 1-4, (%) ([2]; percent of patients of n = 371): (8%)
- Pain in Extremity Grade 3-4, (%) ([2]; percent of patients of n = 371): (2%)
- Peripheral Edema Grade 1-4, (%) ([2]; percent of patients of n = 371): (9%)
- Peripheral Edema Grade 3-4, (%) ([2]; percent of patients of n = 371): (<1%)
- Peripheral Neuropathy Grade 1-4, (%) ([2]; percent of patients of n = 371): (13%)
- Peripheral Neuropathy Grade 3-4, (%) ([2]; percent of patients of n = 371): (<1%)
- Pneumonia Grade 1-4, (%) ([2]; percent of patients of n = 371): (3%)
- Pneumonia Grade 3-4, (%) ([2]; percent of patients of n = 371): (2%)
- Pyrexia Grade 1-4, (%) ([2]; percent of patients of n = 371): (12%)
- Pyrexia Grade 3-4, (%) ([2]; percent of patients of n = 371): (1%)
- Urinary Tract Infection Grade 1-4, (%) ([2]; percent of patients of n = 371): (8%)
- Urinary Tract Infection Grade 3-4, (%) ([2]; percent of patients of n = 371): (2%)
- Vomiting Grade 1-4, (%) ([2]; percent of patients of n = 371): (22%)
- Vomiting Grade 3-4, (%) ([2]; percent of patients of n = 371): (2%)
- Weight Decreased Grade 1-4, (%) ([2]; percent of patients of n = 371): (9%)
- Anemia Grade 1-4, (%) [2, 4]: (98%)
- Anemia Grade 3-4, (%) [2, 4]: (11%)
- Leukopenia Grade 1-4, (%) [2, 4]: (96%)
- Leukopenia Grade 3-4, (%) [2, 4]: (69%)
- Neutropenia Grade 1-4, (%) [2, 4]: (94%)
- Neutropenia Grade 3-4, (%) [2, 4]: 81.7%
- Thrombocytopenia Grade 1-4, (%) [2, 4]: (48%)
- Thrombocytopenia Grade 3-4, (%) [2, 4]: (4%)
- Neutropenia Grade 3-4, (%) ([2]; percent of patients, laboratory values, cabazitaxel: n = 369, mitoxantrone: n = 370, listed as Cabazitaxel): (82%)
